How the values were obtained:
[1] = tested on: bladder smooth muscle strips; assay: Antimuscarinic activity on bladder smooth muscle strips (carbachol-induced contractions); format: cell-based, guinea pigs; details: Cavia porcellus, read-out: KB, inhibition of carbachol-induced contractions
[2] = target: T1, human recombinant muscarinic receptor M-3 (Homo sapiens, UniProt P20309); assay: biochemical; format: binding
T1 construct: expressed in transfected cells; host or cells: Sf9 insect cells (membranes)
T1 sequence (P20309 whole entry): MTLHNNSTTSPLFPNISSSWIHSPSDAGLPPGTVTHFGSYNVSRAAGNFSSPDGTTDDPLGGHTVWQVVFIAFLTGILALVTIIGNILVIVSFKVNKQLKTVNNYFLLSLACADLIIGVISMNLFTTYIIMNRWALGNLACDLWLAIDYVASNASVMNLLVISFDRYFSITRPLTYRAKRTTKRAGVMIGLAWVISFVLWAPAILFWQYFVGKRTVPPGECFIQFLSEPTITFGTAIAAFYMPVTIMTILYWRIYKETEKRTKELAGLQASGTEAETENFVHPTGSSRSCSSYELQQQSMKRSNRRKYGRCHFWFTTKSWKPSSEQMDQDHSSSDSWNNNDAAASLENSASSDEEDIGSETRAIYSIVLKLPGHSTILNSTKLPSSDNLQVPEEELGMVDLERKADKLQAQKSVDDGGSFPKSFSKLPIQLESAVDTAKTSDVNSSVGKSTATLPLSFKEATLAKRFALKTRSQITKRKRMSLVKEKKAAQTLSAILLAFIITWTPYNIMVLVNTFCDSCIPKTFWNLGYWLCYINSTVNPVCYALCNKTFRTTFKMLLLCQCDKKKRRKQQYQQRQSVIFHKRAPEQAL

O=C(OC1CC2CCC(C1)[N+]21CCCC1)C(O)(c1ccccc1)c1ccccc1 (stereo not drawn) [Trospium, 3α-hydroxy-spiro[1αH,5αH-nortropane-8,1′-pyrrolidinium]chloride benzilate]
Kb [1]: 1.5 to 5.5 nM
Ki [2]: 0.501 nM

Cc1ccc(O)c([C@H](CCN(C(C)C)C(C)C)c2ccccc2)c1 [Tolterodine]
Kb [1]: 1.5 to 5.5 nM
